IC50 data for one compound are collected here from BindingDB's records for patent US10913744 (Dana-Farber Cancer Institute, 2021).

pIC50: −log10 of the molar value.

Usually pIC50 stands for the IC50 on a negative log10 scale, so that one unit is a factor of ten. A low value points to a large IC50.

Test [1] addresses T1, Leucine-rich repeat serine/threonine-protein kinase 2 [1326-2527] (Homo sapiens, UniProt Q5S007).
T1 construct: 1326-2527
T1 sequence (Q5S007 whole entry): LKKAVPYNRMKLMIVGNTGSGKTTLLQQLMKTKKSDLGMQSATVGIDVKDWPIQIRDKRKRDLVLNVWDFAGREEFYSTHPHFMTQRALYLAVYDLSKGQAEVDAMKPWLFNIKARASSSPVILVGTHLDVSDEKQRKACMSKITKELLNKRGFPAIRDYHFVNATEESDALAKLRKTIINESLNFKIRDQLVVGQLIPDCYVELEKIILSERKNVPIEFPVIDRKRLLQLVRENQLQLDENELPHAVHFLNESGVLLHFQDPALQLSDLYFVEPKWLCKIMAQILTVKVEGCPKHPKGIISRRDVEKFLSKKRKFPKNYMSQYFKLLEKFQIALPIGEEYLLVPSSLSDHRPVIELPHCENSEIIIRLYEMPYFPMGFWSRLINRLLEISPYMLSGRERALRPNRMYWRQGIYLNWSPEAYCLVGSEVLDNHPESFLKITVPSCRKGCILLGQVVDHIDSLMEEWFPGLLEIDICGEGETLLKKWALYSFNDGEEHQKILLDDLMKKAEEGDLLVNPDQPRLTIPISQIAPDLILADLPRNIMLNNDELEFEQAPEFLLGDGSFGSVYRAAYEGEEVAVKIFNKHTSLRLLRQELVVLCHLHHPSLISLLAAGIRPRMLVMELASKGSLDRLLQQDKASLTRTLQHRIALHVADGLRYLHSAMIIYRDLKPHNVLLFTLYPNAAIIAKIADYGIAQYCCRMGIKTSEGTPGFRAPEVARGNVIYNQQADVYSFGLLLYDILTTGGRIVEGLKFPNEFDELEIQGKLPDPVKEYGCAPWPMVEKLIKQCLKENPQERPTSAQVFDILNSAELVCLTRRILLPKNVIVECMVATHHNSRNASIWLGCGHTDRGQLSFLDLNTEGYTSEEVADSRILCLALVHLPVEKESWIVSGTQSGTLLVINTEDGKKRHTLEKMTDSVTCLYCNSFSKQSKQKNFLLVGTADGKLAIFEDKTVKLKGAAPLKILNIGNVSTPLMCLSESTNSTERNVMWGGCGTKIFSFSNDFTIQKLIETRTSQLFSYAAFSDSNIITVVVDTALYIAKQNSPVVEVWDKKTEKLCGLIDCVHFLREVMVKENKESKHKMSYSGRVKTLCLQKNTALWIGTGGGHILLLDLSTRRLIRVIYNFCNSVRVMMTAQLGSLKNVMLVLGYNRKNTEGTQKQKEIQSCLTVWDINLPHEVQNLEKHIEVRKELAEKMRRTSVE
In words: Enzyme Assay. On the procedure:
(§1) Samples were washed extensively and the incorporation of [γ-32P]ATP into Nictide was quantified by Cerenkov counting. IC50 values were calculated with GraphPad Prism using non-linear regression analysis.

For test [2], the target named is T2, Leucine-rich repeat serine/threonine-protein kinase 2 [1326-2527,G2019S] (Homo sapiens, UniProt Q5S007, G2019S).
T2 construct: 1326-2527
The experiment in a line: Enzyme Assay. As for the experimental part:
as §1

T2 sequence (Q5S007 1326-2527 G2019S): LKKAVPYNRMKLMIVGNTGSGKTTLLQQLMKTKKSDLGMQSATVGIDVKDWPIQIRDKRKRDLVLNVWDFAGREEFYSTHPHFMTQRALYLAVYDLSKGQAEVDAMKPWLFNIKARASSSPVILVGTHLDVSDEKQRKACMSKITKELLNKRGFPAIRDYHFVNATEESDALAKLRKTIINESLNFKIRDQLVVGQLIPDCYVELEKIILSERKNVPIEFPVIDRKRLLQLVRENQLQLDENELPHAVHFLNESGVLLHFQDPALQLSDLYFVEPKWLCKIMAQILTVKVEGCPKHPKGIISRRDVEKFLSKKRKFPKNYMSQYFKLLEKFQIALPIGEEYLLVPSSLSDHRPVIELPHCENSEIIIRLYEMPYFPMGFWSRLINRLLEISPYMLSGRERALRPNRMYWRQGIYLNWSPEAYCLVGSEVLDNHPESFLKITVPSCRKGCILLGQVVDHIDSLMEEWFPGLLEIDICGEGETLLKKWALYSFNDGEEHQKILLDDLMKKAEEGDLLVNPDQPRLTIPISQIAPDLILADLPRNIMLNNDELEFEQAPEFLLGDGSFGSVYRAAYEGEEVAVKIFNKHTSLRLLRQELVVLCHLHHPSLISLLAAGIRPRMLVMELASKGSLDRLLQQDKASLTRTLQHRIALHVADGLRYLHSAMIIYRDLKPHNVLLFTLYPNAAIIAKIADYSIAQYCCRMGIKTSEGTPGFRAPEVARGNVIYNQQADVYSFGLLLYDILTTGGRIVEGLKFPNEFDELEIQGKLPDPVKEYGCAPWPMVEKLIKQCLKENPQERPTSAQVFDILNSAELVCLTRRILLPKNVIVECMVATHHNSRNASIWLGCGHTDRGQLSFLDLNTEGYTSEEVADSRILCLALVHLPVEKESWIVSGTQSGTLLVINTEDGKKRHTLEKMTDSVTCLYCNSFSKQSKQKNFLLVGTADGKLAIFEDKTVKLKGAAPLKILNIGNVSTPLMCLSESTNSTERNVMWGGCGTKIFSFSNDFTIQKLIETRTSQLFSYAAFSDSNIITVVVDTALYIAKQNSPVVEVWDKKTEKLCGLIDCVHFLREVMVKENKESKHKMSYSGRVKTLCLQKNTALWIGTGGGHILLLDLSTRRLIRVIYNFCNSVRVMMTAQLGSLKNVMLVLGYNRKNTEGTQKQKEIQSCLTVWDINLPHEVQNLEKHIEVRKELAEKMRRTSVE

Turning to `CNc1nc(Nc2ccc(C(=O)N3CCOCC3)cc2OC)nc2[nH]ccc12` [US10913744, Compound 8], the pIC50 is 8.59 in test [1] and 8.29 in test [2].
